Laboratory results reported in patent US12630501B2, “Anti-fibrotic compounds and use thereof” (HADASIT MEDICAL RESEARCH SERVICES AND DEVELOPMENT LTD., priority 2019, dated 2026).

Tests used:
[1] = cited from earlier work
[2] = test system: BLM-treated C57BL/6 WT mice; settings: prior finding restated; cited from earlier work
FLIP = FLIP protein by Western blot and flow cytometry in IPF-lung myofibroblasts; format: cell-based, human; settings: CMH 30 μM, 72 h
Procedure: (§1) Human lung myofibroblasts Differentiated fibroblasts from IPF-lungs and controls from patient lung biopsies performed for tumor diagnosis were obtained under a protocol detailed in Wallach-Dayan et al., J. Autoimmun. 59: 67-76, 2015. LL 97A (AlMy) (ATCC® CCL-191™)-IPF-lung, and LL 24 (ATCC® CCL-151™)-normal lung fibroblast cell lines were used.
FLIP protein in lung myofibroblasts Standard WB and flow cytometry were performed as described in Cohen et al., Am. J. Respir. Cell Mol. Biol. 40: 231-238, 2009.
(§2) FLIP downregulation from an OD of 1.85 to 0.49 (about 3.5-fold) was detected in WB (FIG. 4F), and a […] from a mean fluorescence intensity (MFI)=10^3 to only 10^1 was detected with flow cytometry (FIG. 4G). Thus, SIRT1-mediated Ku70-deacetylation stabilizes IPF-lung myofibroblast FLIP via Ku70/FLIP complex. This effect of CMH on Ku70 further disrupts Ku70/FLIP complex and destabilizes FLIP in IPF-lung myofibroblasts.
(§3) IPF cell line ATCC-191 (0.5×10^6), were exposed in culture (10% DMEM) to a compound of Formula 6 (1 or 3 μM) vs. 4% DMSO (vehicle) for 16 h. Ku70 immunoprecipitation with subsequent pan-acetyl (FIG. 8A) and immunoblots of Ku70 with anti-Ku70 mAb (FIG. 8B) or FLIP with anti-FLIP mAb (FIG. 8C) were measured. […] IPF-lung myofibroblasts decreased FLIP expression from an OD of 1.00 to 0.51 (about twofold, FIG. 8C).
IPF cell line ATCC-191 (0.5×10^6), were exposed in culture (10% DMEM) to a compound of Formula 12 (1 μM), vs. 4% DMSO (vehicle) for 16 h. Immunoblots of FLIP with anti-FLIP mAb were performed (FIG. 9). […] Thus, the compound of Formula 12 attenuates FLIP stabilization in IPF-lung myofibroblast.

HDAC1 = HDAC1 (Homo sapiens, UniProt Q13547); settings: prostate cancer cells; cited from earlier work
Chain of HDAC1 (Q13547 whole entry, species assumed): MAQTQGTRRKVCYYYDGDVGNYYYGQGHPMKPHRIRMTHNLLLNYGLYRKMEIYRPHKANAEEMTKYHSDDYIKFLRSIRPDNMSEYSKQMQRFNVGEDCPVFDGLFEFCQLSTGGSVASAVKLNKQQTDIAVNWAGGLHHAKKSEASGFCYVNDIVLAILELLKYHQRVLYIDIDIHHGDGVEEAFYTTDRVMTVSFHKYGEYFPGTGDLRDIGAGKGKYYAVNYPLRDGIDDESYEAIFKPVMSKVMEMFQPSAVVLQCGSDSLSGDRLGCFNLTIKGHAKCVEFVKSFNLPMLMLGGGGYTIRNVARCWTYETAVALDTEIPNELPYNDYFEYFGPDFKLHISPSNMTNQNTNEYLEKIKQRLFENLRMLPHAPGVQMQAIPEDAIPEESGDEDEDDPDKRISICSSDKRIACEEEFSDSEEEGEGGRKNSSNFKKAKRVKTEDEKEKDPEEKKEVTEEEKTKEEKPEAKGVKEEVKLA

HDAC8 = target: T1, HDAC8 (Homo sapiens, UniProt Q9BY41); settings: prostate cancer cells; cited from earlier work
T1 sequence (Q9BY41 1-377): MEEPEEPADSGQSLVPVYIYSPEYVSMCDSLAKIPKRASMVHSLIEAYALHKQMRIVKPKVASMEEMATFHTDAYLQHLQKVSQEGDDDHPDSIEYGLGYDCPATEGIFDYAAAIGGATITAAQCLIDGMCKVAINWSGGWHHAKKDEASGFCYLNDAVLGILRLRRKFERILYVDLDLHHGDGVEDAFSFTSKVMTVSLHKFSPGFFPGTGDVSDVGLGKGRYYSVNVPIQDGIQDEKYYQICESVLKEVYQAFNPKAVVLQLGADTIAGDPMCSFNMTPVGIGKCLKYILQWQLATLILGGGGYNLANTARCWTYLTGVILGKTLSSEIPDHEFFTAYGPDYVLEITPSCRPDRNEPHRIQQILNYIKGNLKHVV

Ku70/FLIP complex = assay: Ku70 immunoprecipitation with FLIP immunoblot in IPF-lung myofibroblasts; format: cell-based, human; settings: CMH 30 μM, 72 h
Procedure: as §1
(§4) Immunoprecipitation and immunoblotting Standard protocols were performed as described in Golan-Gerstl et al., Am. J. Respir. Cell Mol. Biol. 47: 271-279, 2012.
as §2

[3] = test system: breast cancer cells and pancreatic cancer cells; settings: cited from earlier work
Ku70 = Ku70 immunoprecipitation with pan-acetyl / Ku70 immunoblot in IPF-lung myofibroblasts; format: cell-based, human; settings: CMH 30 μM, 72 h
Procedure: as §1, §4, §2, §3

Cc1cc(Cl)ccc1OCCCC(=O)NO [CMH, 4-(4-chloro-2-methylphenoxy)-N-hydroxybutanamide]
Water solubility [1]: low
Lung fibrosis in in-vivo model, C57BL/6 mice lungs following bleomycin instillation [2]: attenuate lung fibrosis
FLIP downregulation in WB (FLIP): about 3.5 fold
FLIP reduction by flow cytometry (FLIP): 60%
FLIP OD in WB (FLIP; from 1.85): 0.49 OD
FLIP mean fluorescence intensity (MFI), flow cytometry (FLIP; from 10^3): 10^1
Inhibition of HDAC1 (HDAC1): not inhibited
Inhibition of HDAC8 (HDAC8): Selective inhibition
Decrease of Ku70/FLIP complex (Ku70/FLIP complex): about 1.5 fold
Ku70/FLIP complex in FLIP-IB (Ku70/FLIP complex; from 6.2): 4.1 OD
Apoptosis [3]: increase
FLIP expression [3]: downregulate
Increase of Ku70 acetylation (Ku70): about twofold
Ku70 acetylation, optical density ratio (OD) in pan-acetyl IB of Ku70 IP (Ku70; from 2.43 before): 5.6 OD
